# Results taken from patent publication US5294617A, “Angiotensin II receptor blocking 2,3,6 substituted quinazolinones” (American Cyanamid Company, priority 1993, dated 1994).
# Target: T1, Angiotensin II Receptor (Bos taurus, UniProt P25104)
# T1 construct: The brownish tissue forming the adrenal cortex is scraped off and finely minced with scissors before homogenization; tissue local slaughter house (Maxwell--Cohen); host or cells: beef adrenal cortex, microsomal membranes (100,000×g pellet)
# T1 sequence (P25104 1-359): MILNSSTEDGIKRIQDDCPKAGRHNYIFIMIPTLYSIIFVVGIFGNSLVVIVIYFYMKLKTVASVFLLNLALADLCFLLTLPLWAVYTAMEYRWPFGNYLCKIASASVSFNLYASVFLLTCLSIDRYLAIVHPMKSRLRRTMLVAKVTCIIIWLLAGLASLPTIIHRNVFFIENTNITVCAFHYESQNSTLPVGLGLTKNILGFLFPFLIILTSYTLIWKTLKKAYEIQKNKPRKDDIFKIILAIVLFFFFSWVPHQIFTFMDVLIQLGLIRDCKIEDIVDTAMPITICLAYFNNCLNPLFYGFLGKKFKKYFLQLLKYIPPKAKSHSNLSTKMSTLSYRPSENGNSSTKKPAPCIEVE
# Assay: Receptor Binding Assay: binding of [125I](Sar1,Ile8)AngII to beef adrenal cortex membranes
# Source text: [^125 I](Sar^1,Ile^8)AngII, S.A. 2200 Ci/mmole, is purchased from Dupont (NEN®, Boston, Mass.). All unlabeled AngII analogs, Dimethylsulfoxide (DMSO), nucleotides, bovine serum albumin (BSA) are purchased from Sigma Chemical Co., St. Louis, Mo. U.S.A.
# Approximately sixteen (16) to twenty (20) beef adrenal glands are processed as follows: fresh adrenal glands received on crushed ice are cleaned of fatty tissues and the tough membranes encapsulating the glands are removed and discarded. The brownish tissue forming the adrenal cortex is scraped off and finely minced with scissors before homogenization. Care is taken to avoid contamination with medullary tissue during dissection. The scraped cortices are suspended in twenty volumes of an ice-cold buffer medium consisting of 10 mM Tris.HCl (pH 7.4 at 22° C.) and containing 1.0 mM EDTA and 0.2M sucrose. Unless otherwise indicated, all subsequent operations are done at 4° C. […] The homogenate is centrifuged first at low speed (3,000×g) for 10 min. […] This P2 pellet is discarded and the liquid phase is carefully decanted off in clean centrifuge tubes and recentrifuged at high speed (100,000×g) for 60 min. The translucent final pellet is harvested and combined in a small volume (20-50.0 ml) of 50.0 mM Tris.HCl buffer, pH 7.2. […] The pelleted membrane is reconstituted in 50.0 mM Tris.HCl buffer containing 0.1 mM of phenylmethylsulfonyl fluoride (PMSF) to give approximately a protein concentration of 2.5 mg per ml of tissue suspension. The membrane preparation is finally aliquoted in 1.0 ml volumes and stored at -70° C. until use in the binding assays.
# In competition studies, experimental compounds are diluted in dimethylsulfoxide (DMSO) and added in 20 ul to wells before the introduction of tissue membranes. […] Assays are performed in triplicate. The wells are left undisturbed for 60 min. at room temperature. […] The filters are removed from the filter grid and counted in a Parkard® Cobra Gamma Counter for 1 min. […] The binding data are analyzed by the non-linear interactive "LUNDON-1" program (LUNDON SOFTWARE Inc., Cleveland, Ohio U.S.A.).
row,IC50 [nM],Structure (SMILES)
1,43,"CCCCc1nc2ccc([C@@H]3C[C@H](CO)ON3C)cc2c(=O)n1Cc1ccc(-c2ccccc2-c2nn[nH]n2)cc1 (relative stereo) [Example 15, CIS-2-butyl-6-5-(hydroxymethyl)-2-methyl-3-isoxazolidinyl]-3-[[2'-(1H-tetrazol-5[1,1'-biphenyl]-4-yl]methyl]-4(3H)-quinazolinone]"
2,61,"CCCCc1nc2ccc([C@H]3C[C@H](CO)ON3C)cc2c(=O)n1Cc1ccc(-c2ccccc2-c2nnn[nH]2)cc1 (relative stereo) [Example 16, TRANS-2-butyl-6-[5-(hydroxymethyl)-2-methyl-3-isoxazolidinyl]-3-[[2'-(1H-tetrazol-5-yl)[1,1'-biphenyl]-4-yl]methyl]-4(3H)-quinazolinone]"
